One assay concerns the target Ca^2+-ATPase (SERCA1a) (Oryctolagus cuniculus, UniProt P04191). As to the kind of experiment: ATP hydrolysis assay, SERCA. Format: biochemical, rabbit. As for the experimental part:
(§1) Rabbit sarcoplasmic reticulum membranes containing sarcoplasmic endoplasmic reticulum Ca^2+-ATPase (SERCA) were kindly provided by Claus E. Olesen and Jesper V. Møller, Aarhus University, and prepared as described in reference. Porcine kidney Na^+,K^+-ATPase was kindly provided by Natalya Fedosova, Aarhus University, and prepared as described in reference.
(§2) The protein activity levels were determined by measuring the amount of free phosphate produced from the ATP hydrolysis reaction. The assay was performed as described in reference. Each well contained ATPase enzyme, 2 μl of inhibitor (usually in the range of 333 to 0.01 μM) dissolved in dimethyl sulfoxide (DMSO) (Duchefa Biochemie, Haarlem, The Netherlands), and an assay buffer dependent on the enzyme for a final volume of 60 μl. Possible compound precipitation in the assay buffer was monitored using a Nephelostar plate reader measuring turbidity, and the information was taken into account in the IC50 determination. Pma1 assay buffer consisted of 20 mM 3-(N-morpholino)propanesulfonic acid (MOPS)–NaOH, pH 6.5 or 7.0, 8 mM MgSO4, 50 mM KNO3 (a vacuolar ATPase inhibitor), 25 mM sodium azide (a mitochondrial ATPase inhibitor), and 250 μM sodium molybdate (an acid phosphatase inhibitor). SERCA buffer consisted of 9 mM MOPS-NaOH, pH 7, 2.7 mM MgCl2, 90 μM CaCl2, and 72 mM KCl. Na^+,K^+-ATPase buffer consisted of 30 mM MOPS-NaOH, pH 7, 40 mM NaCl, 4 mM MgCl2, and 20 mM KCl. The concentration of protein was adjusted to obtain a signal of the optical density at 860 nm (OD860) of between 0.5 and 1.0 in the untreated samples (for all Pma1 batches, ∼1 to 2 μg/well; for SERCA and Na^+,K^+-ATPase, ∼0.1 to 0.2 μg/well).

Another assay concerns the target T1, C. albicans Pma1 (Candida albicans, UniProt P28877).
T1 construct: endogenous in cells
As to the kind of experiment: ATP hydrolysis assay, C. albicans Pma1. Format: biochemical. The protocol: A 100-ml overnight culture in YPD medium [10 g/liter yeast extract (BD, Sparks, MD), 20 g/liter Bacto peptone (BD), 20 g/liter D-(+)-glucose] was transferred to 1 liter YPD medium and grown at room temperature and 150 rpm for 18 h for wild-type S. cerevisiae (ATCC 9763) and 7 h for C. albicans. The cells were harvested and washed in Milli-Q H2O by centrifugation at 3,360 × g. The cells were glucose activated by the addition of 10% D-(+)-glucose for 10 min while shaking. The cells were then centrifuged at 3,360 × g for 3 min and frozen. Cells (60 to 80 g, wet weight) were then disrupted by bead beating (BioSpec, Bartlesville, OK) and processed as described in reference to prepare the plasma membranes. […] All batches were validated by ATPase hydrolysis activity, pH optimum, and orthovanadate sensitivity.
as §2, with “μg/well). BM2 ([…]-NH2, D-form amino acids) was custom synthesized by Peptide 2.0 (Chantilly, VA).” for “μg/well).”

For another assay, the target named is T2, Na^+,K^+-ATPase (Sus scrofa, UniProt P05024).
T2 construct: from tissue; host or cells: porcine kidney (gift of Natalya Fedosova, Aarhus University)
Nature of the assay: ATP hydrolysis assay, Na+,K+-ATPase. Format: biochemical, porcine. As for the experimental part: as §1, §2

The subject of assay [1] is Saccharomyces cerevisiae ATCC 9763. Nature of the assay: microbe, parasite or virus in culture. The following applies: read-out: MIC for growth inhibition, S. cerevisiae. It counts as cell-based. As for the experimental part:
(§3) The following fungal isolates were used: Saccharomyces cerevisiae ATCC 9763, Candida albicans SC5314, Candida parapsilosis ATCC 22019, Candida tropicalis Ct016, Candida glabrata ATCC 90030, Aspergillus fumigatus ATCC 13073, and Aspergillus flavus ATCC MYA-1005. Frozen stocks of yeast isolates in glycerol (final concentration, 20%) were prepared by growing the cells to log phase in YPD medium at 30°C and 150 rpm. Frozen stocks of mold spores were prepared by harvesting spores from 7-day-old potato glucose agar plates in phosphate-buffered saline, 0.1% Tween 80 and aliquoting these spores in the presence of glycerol (final concentration, 20%). The cells were stored at −80°C. The cells or spores were thawed and diluted to a final concentration of 0.5 × 10^5 to 2.5 × 10^5 CFU/ml in sterile Milli-Q H2O. […] The plate was incubated for 20 to 24 h at 34°C (72 h for molds), and the OD490 was measured on a Victor X5 (PerkinElmer) plate reader. Mold growth assay plates were also visually inspected. The MIC was defined as the lowest concentration inhibiting the visual growth of the microorganism. Standard errors were typically below 5%.

Assay [2] relates to Aspergillus flavus ATCC MYA-1005. Nature of the assay: microbe, parasite or virus in culture. Format: cell-based. The conditions noted are these: read-out: MIC for growth inhibition, A. flavus. As for the experimental part: as §3
The mark [3] stands for this setting: Table 2, pH 7, n = 2, read-out: IC50 for ATP hydrolysis, C. albicans Pma1.
Setting [4] is: read-out: IC50 for the Pma1 enzyme from C. albicans.
Setting [5] is: Table 1, ATP hydrolysis at pH 7.4 (compounds marked b), read-out: IC50 Na^+,K^+-ATPase.
Setting [6] is: Table 1, ATP hydrolysis at pH 7, read-out: IC50 Na^+,K^+-ATPase.
[7] abbreviates: Saccharomyces cerevisiae, ATCC9763, Table 3.
[8] abbreviates: Table 2, pH 7, n = 2, rabbit SERCA1a, read-out: IC50 for ATP hydrolysis, SERCA.
Where [9] appears, read: Table 2, pH 7, n = 2, porcine kidney, read-out: IC50 for ATP hydrolysis, Na^+,K^+-ATPase.

One may read the IC50 as the concentration that inhibits the measured activity by half.

≈ marks a conversion by molar mass, not a printed value. Read-outs that look alike come from different tables or passages of the source. Residues, ends and D or L forms follow the SMILES beside them.

Ca^2+-ATPase (SERCA1a), sequence (P04191 1-994 isoform P04191-2): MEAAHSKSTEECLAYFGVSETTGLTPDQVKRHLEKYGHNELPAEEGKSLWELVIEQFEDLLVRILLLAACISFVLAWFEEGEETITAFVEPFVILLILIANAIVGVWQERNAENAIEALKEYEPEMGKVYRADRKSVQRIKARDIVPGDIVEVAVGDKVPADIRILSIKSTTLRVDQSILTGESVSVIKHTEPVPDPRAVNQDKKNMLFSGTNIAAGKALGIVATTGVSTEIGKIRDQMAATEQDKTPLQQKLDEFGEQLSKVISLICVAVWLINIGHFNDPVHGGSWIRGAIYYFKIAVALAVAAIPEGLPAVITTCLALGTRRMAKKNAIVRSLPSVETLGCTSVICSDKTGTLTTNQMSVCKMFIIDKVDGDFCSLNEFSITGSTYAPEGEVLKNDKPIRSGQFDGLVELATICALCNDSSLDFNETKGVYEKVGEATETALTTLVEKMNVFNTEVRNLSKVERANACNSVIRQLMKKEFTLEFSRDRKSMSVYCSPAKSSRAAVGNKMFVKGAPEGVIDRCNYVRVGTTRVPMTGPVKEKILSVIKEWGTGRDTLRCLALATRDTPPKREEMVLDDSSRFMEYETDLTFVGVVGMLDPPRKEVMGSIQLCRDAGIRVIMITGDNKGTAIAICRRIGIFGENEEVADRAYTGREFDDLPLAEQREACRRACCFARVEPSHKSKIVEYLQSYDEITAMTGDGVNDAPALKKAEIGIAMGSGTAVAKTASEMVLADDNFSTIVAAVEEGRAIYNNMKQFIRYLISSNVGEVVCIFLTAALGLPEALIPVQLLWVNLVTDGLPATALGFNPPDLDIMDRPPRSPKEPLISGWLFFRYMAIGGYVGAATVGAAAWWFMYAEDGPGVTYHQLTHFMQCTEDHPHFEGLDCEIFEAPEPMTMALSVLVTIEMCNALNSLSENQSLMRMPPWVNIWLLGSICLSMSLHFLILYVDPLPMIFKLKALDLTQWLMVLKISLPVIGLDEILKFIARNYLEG
T1 sequence (P28877 whole entry): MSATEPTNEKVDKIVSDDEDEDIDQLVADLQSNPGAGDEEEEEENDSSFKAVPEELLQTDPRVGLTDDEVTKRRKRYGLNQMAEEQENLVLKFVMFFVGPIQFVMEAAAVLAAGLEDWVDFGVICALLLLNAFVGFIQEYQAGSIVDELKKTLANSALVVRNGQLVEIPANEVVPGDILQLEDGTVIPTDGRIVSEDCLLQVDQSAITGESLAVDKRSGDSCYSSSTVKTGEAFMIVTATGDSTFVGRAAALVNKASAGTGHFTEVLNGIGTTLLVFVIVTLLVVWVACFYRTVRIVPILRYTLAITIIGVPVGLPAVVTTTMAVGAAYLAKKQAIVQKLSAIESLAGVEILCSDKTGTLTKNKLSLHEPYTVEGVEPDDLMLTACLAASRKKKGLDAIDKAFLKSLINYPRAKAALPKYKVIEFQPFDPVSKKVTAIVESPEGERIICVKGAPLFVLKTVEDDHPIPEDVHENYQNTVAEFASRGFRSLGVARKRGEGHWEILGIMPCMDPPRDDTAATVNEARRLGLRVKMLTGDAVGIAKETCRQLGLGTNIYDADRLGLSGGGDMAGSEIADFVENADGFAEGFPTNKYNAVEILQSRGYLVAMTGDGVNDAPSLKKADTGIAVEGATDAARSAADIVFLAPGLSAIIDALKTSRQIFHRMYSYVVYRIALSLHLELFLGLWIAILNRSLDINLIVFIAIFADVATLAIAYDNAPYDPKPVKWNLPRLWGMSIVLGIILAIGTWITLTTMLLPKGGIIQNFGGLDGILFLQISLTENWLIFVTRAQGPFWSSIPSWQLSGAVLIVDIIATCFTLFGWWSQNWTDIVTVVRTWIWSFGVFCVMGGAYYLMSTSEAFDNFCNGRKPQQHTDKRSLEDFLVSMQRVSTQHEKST

As to `N=C(N)NCCC[C@@H](N)C(=O)N[C@H](CCCNC(=N)N)C(=O)N[C@H](CCCNC(=N)N)C(=O)N[C@H](Cc1ccccc1)C(=O)N[C@H](Cc1c[nH]c2ccccc12)C(=O)N[C@H](Cc1c[nH]c2ccccc12)C(=O)N[C@H](Cc1ccccc1)C(=O)N[C@H](CCCNC(=N)N)C(=O)N[C@H](CCCNC(=N)N)C(=O)N[C@H](CCCNC(=N)N)C(N)=O` [BM2, reference compound] (HELM PEPTIDE1{[dR].[dR].[dR].[dF].[dW].[dW].[dF].[dR].[dR].[dR].[am]}$$$$V2.0), the concentration for half-maximal inhibition (IC50) against Ca^2+-ATPase (SERCA1a) was 1.1 µM; at C. albicans Pma1 (setting [3]) it was 0.9 ± 0.2 µM; at C. albicans Pma1 (setting [4]) it was 0.9 µM; on Na^+,K^+-ATPase, 10.4 ± 2.7 µM. Besides, the values for the MIC in assay [1] (ATCC 9763) and in assay [2] (ATCC MYA-1005) were 4.7 µM (≈ 7.62 µg/mL) and over 150 µM, respectively.

As to `O=C1/C(=C/c2ccc(-c3cc(Cl)ccc3Cl)o2)C=C(c2ccccc2)N1c1ccccc1O` [Compound 1], the half-inhibitory concentration (IC50) is 17.5 ± 4.7 µM against Ca^2+-ATPase (SERCA1a) and 13.2 ± 0.91 µM at Na^+,K^+-ATPase (setting [5]).

In the case of `COc1ccc(-c2cc(C(=O)Nc3ccc(C(C)C)cc3)c3ccccc3n2)c(OC)c1` [Compound 3], the IC50 against Ca^2+-ATPase (SERCA1a) and on Na^+,K^+-ATPase (setting [6]) was over 105 µM each time.

With `CC1CCCCN1CC(O)Cn1c(-c2ccccc2)c(-c2ccccc2)c2ccc3ccccc3c21` (centres unmarked) [Compound 4], the values for the IC50 against Ca^2+-ATPase (SERCA1a) and on Na^+,K^+-ATPase (setting [5]) were 4.1 ± 0.2 µM and 15 ± 7.2 µM, respectively.

Regarding `CCOc1ccc2nc3cc(NC(=O)c4cccc(Br)c4)ccc3c(N)c2c1` [Compound 5], the half-inhibitory concentration (IC50) against Ca^2+-ATPase (SERCA1a) was found to be 0.46 ± 0.04 µM; at Na^+,K^+-ATPase (setting [5]) it was 1.3 ± 0.3 µM.

For `Cc1c(-c2ccccc2)[o+]c2ccccc2c1C#Cc1ccccc1` [Compound 6], the concentration for half-maximal inhibition (IC50) on Na^+,K^+-ATPase (setting [5]) came out at 3.5 ± 3.7 µM.

For `Oc1cccc(Nc2nc(-c3ccc(Cl)c(Cl)c3)cs2)c1` [Compound 7], the half-maximal inhibitory concentration (IC50) on Na^+,K^+-ATPase (setting [5]) came to 5.8 ± 0.8 µM.

With `COc1ccc(-c2cc(C(=O)Nc3ccc4c(c3)OCCO4)c3ccccc3n2)c(OC)c1` [Compound 8], the IC50 against Ca^2+-ATPase (SERCA1a) and on Na^+,K^+-ATPase (setting [6]) was over 105 µM in each case.

Turning to `COc1cccc(Nc2nc(Cl)nc(Nc3cccc(OC)c3)n2)c1` [Compound 9], the concentration for half-maximal inhibition (IC50) against Ca^2+-ATPase (SERCA1a) and at Na^+,K^+-ATPase (setting [6]) was over 105 µM throughout.

`CCCCOc1ccc(C2C(C#N)=C(N)Oc3cc(O)ccc32)cc1` (centres unmarked) [Compound 11]: the IC50 at Ca^2+-ATPase (SERCA1a) came to 15.7 ± 2 µM; at Na^+,K^+-ATPase (setting [6]) it was 30.3 ± 2.4 µM.

For `COc1ccc(Cn2c(SCc3cc(C)ccc3C)nc3cc(OC)c(OC)cc3c2=N)cc1` [Compound 12], the half-maximal inhibitory concentration (IC50) on Na^+,K^+-ATPase (setting [6]) is 58.7 ± 40.2 µM.

As for `CCCCc1nc2sc3c(NCCCN(C)C)ncnc3c2c2c1CCCC2` [Compound 14], the 50% inhibitory concentration (IC50) came out at 42 ± 8 µM against Ca^2+-ATPase (SERCA1a), 17 ± 0.9 µM on C. albicans Pma1 (setting [3]), 17 µM on C. albicans Pma1 (setting [4]) and 18.4 ± 2.1 µM on Na^+,K^+-ATPase (setting [6]). Moreover, the MIC in assay [1] (setting [7]) is 7.5 µM (≈ 2.98 µg/mL); in assay [2] (Aspergillus flavus, Table 3), 75 µM (≈ 29.8 µg/mL).

For the compound `CCCCc1nc2sc3c(NCCCN(C)C)nc(SC)nc3c2c2c1CCC2` [Compound 15], the IC50 on Ca^2+-ATPase (SERCA1a) (setting [8]) came to 4.5 µM; at C. albicans Pma1 (setting [3]), 6.3 ± 0.5 µM; on Na^+,K^+-ATPase (setting [9]), 4.1 ± 0.6 µM. Moreover, the MIC turned out to be 1.5 µM (≈ 0.644 µg/mL) in assay [1] (setting [7]) and 24 µM (≈ 10.3 µg/mL) in assay [2] (Aspergillus flavus, Table 3).

Regarding `CN(C)CCCNc1ncnc2c1sc1nc(N3CCCCC3)c3c(c12)CCCC3` [Compound 16], the values for the IC50 at Ca^2+-ATPase (SERCA1a), on C. albicans Pma1 (setting [3]) and at Na^+,K^+-ATPase (setting [9]) were 11.1 µM, 9.5 ± 1 µM and 9.1 ± 1 µM, respectively. The MIC in assay [1] (setting [7]) was found to be 3.2 µM (≈ 1.36 µg/mL); in assay [2] (Aspergillus flavus, Table 3) it was 47 µM (≈ 20 µg/mL).

As for `CCc1nc2sc3c(NCCCN(C)C)ncnc3c2c2c1CCCC2` [Compound 17], the IC50 was over 333 µM against Ca^2+-ATPase (SERCA1a), 151 ± 6.2 µM on C. albicans Pma1 (setting [3]) and over 333 µM on Na^+,K^+-ATPase (setting [9]). Besides, the MIC was 47 µM (≈ 17.4 µg/mL) in assay [1] (setting [7]) and over 150 µM in assay [2] (Aspergillus flavus, Table 3).

As for `CN(C)CCCNc1ncnc2c1sc1nc(-c3ccccc3)c3c(c12)CCC3` [Compound 18], the IC50 at Ca^2+-ATPase (SERCA1a) was determined as 69.5 ± 6.9 µM; on C. albicans Pma1 (setting [3]), 22.9 ± 2 µM; at Na^+,K^+-ATPase (setting [9]), 85.7 ± 26.6 µM. For the same compound, the MIC was 24 µM (≈ 9.69 µg/mL) in assay [1] (setting [7]) and over 75 µM in assay [2] (Aspergillus flavus, Table 3).

Consider `CCN(CC)CCCNc1nc(SC)nc2c1sc1nc(-c3ccccc3)c3c(c12)CCC3` [Compound 19], for which the IC50 at Ca^2+-ATPase (SERCA1a) (setting [8]) was 4.4 ± 0.3 µM; on C. albicans Pma1 (setting [3]), 8.7 ± 0.5 µM; at C. albicans Pma1 (setting [4]), 9 µM; at Na^+,K^+-ATPase (setting [9]), 5.5 ± 1.8 µM. The MIC was 3.7 µM (≈ 1.77 µg/mL) in assay [1] (setting [7]) and 12 µM (≈ 5.73 µg/mL) in assay [2] (Aspergillus flavus, Table 3).

For the compound `O=c1c2ccccc2[se]n1-c1ccccc1` [Ebselen, reference compound], the IC50 at Ca^2+-ATPase (SERCA1a) (setting [8]) was found to be 0.12 µM; against C. albicans Pma1 (IC50 for ATP hydrolysis, C. albicans Pma1, Table 2, pH 7, n = 2) it was 0.51 ± 0.04 µM; on Na^+,K^+-ATPase (setting [9]) it was 0.16 ± 0.01 µM. For the same compound, the MIC in assay [1] (setting [7]) was found to be 7.5 µM (≈ 2.06 µg/mL); in assay [2] (Aspergillus flavus, Table 3) it was 24 µM (≈ 6.58 µg/mL).

Turning to `[O]=[V]([O-])([O-])[O-]` [Vanadate, reference compound], the results for the IC50 on Ca^2+-ATPase (SERCA1a) (setting [8]), on C. albicans Pma1 (setting [3]) and at Na^+,K^+-ATPase (setting [9]) were 10.4 ± 2.4 µM, 0.23 ± 0.05 µM and 0.006 ± 0.001 µM, respectively. Also, the MIC in assay [1] (Table 3) and in assay [2] (Table 3) was over 750 µM throughout.
